± gives the expanded uncertainty stated by the source.
Key:
[1] = Liquid; for mass density: 298.15 K, 101.33 kPa; for vapor or sublimation pressure: Ebulliometric method (Recirculating still)
[2] = refractive index (Na D-line) (dimensionless); conditions: 298.15 K; 101.33 kPa; Liquid; Standard Abbe refractometry

Row | mass density [1] | vapor or sublimation pressure ([1]; 366.55 K) | vapor or sublimation pressure ([1]; 366.65 K) | vapor or sublimation pressure ([1]; 427.62 K) | vapor or sublimation pressure ([1]; 427.65 K) | refractive index [2] | vapor or sublimation pressure ([1]; 358.35 K) | vapor or sublimation pressure ([1]; 411.05 K) | vapor or sublimation pressure ([1]; 353.75 K) | vapor or sublimation pressure ([1]; 403.75 K) | SMILES
1 | 1028.6 ± 0.2 kg/m3 | 13 ± 0.2 kPa | 13 ± 0.2 kPa | 101.3 ± 2 kPa | 101.3 ± 2 kPa | 1.41057 ± 0.00072 | – | – | – | – | CCOC(=O)[C@H](C)O [(S)-(-)-ethyl lactate]
2 | 811.2 ± 0.4 kg/m3 | – | – | – | – | 1.4077 ± 0.0007 | 13 ± 0.17 kPa | 101.3 ± 1.8 kPa | – | – | CCCCCO [pentan-1-ol]
3 | 807.6 ± 0.4 kg/m3 | – | – | – | – | 1.4051 ± 0.0007 | – | – | 13 ± 0.16 kPa | 101.3 ± 1.7 kPa | CC(C)CCO [3-methylbutan-1-ol]
